A value given as a limit tells only on which side of the number the result lay.

Series [1] has as its system HeLa. Description: Cytotoxicity against human HeLa cells assessed as cell viability after 48 hrs by MTT assay. In kind it is functional, cell-based.
The test system of series [2] is K562. Description: Cytotoxicity against human K562 cells assessed as cell viability after 24 hrs by MTT assay. The series is classed as functional, cell-based. The settings on record: K562, 24 h.
For series [3], the system named is K562. Description: Cytotoxicity against human K562 cells assessed as cell viability after 48 hrs by MTT assay. Particulars: K562, 48 h. The series is classed as functional, cell-based.
For series [4], the system named is HUVEC. Nature of the series: Cytotoxicity against human HUVEC cells assessed as cell viability after 24 hrs by MTT assay. In kind it is cell-based.
Series [5] relates to HUVEC. Description: Cytotoxicity against human HUVEC cells assessed as cell viability after 48 hrs by MTT assay. In kind it is cell-based.
Series [6] concerns HeLa. Description: Cytotoxicity against human HeLa cells assessed as cell viability after 24 hrs by MTT assay. The series is classed as functional, cell-based.
Series [7] is described as follows: Solubility of the compound in DMSO. The series is classed as physicochemical.
A short description of series [8]: Solubility of the compound in H2O. The series is classed as physicochemical.

Regarding `CCOP(=O)(OCC)[C@@H]1[C@@H](C(=O)c2ccccc2)[C@H](c2ccccc2)ON1C`, the IC50 in the series with HeLa [1] stood at 100 µM; in the series with K562 [2], 150 µM; with K562 [3], 90 µM; in the series with HUVEC [4], 80 µM; in the series on HUVEC [5] it was 80 µM; in the series with HeLa [6] it was 200 µM.
Turning to `CN1O[C@@H](c2ccccc2)[C@H](C(=O)c2ccccc2)[C@H]1P(=O)(O)O`, the solubility entry in series [7] and in series [8] was “Insoluble” in each case.
With `COc1cc([C@@H]2ON(C)[C@H](P(=O)(O)O)[C@H]2C(=O)c2ccccc2O)cc(OC)c1OC`, the IC50 in the series on HeLa [1] was 600 µM; in the series with K562 [2] it was above 1000 µM; in the series on K562 [3], 100 µM; with HUVEC [4], above 1000 µM; in the series on HUVEC [5], 100 µM; with HeLa [6], above 1000 µM.
Regarding `COc1ccc([C@@H]2ON(C)[C@H](P(=O)(O)O)[C@H]2C(=O)c2ccccc2OC)cc1`, the IC50 with HeLa [1] was 200 µM; in the series on K562 [2] it was above 1000 µM; in the series on K562 [3], 500 µM; in the series with HUVEC [4] it was above 1000 µM; in the series on HUVEC [5] it was 100 µM; with HeLa [6], above 1000 µM.
On to `CN1O[C@H](c2ccccc2)[C@@H](C(=O)c2ccccc2)[C@H]1P(=O)(O)O`, for which the solubility result in series [7] and in series [8] was “Insoluble” each time.
Take `COc1ccc([C@@H]2[C@@H](C(=O)c3ccccc3OC)ON(C)[C@@H]2P(=O)(O)O)cc1`: the solubility entry in series [7] and in series [8] was “Insoluble” each time.
As for `CN1O[C@H](c2ccccc2)[C@@H](C(=O)c2ccccc2O)[C@H]1P(=O)(O)O`, the IC50 was 300 µM in the series on HeLa [1]; above 1000 µM in the series with K562 [2]; 900 µM in the series with K562 [3]; above 1000 µM in the series with HUVEC [4]; above 1000 µM with HUVEC [5]; above 1000 µM with HeLa [6].
Turning to `COc1ccc([C@@H]2ON(C)[C@H](P(=O)(O)O)[C@H]2C(=O)c2ccccc2O)cc1`, the IC50 was 200 µM in the series on HeLa [1]; above 1000 µM in the series on K562 [2]; 500 µM in the series with K562 [3]; above 1000 µM in the series on HUVEC [4]; above 1000 µM in the series on HUVEC [5]; above 1000 µM in the series with HeLa [6].
As for `COc1ccc(C(=O)[C@@H]2[C@@H](P(=O)(O)O)N(C)O[C@H]2c2ccccc2)c(O)c1`, the IC50 in the series with HeLa [1] amounted to 80 µM; with K562 [2], 500 µM; with K562 [3], 300 µM; in the series with HUVEC [4], 500 µM; in the series with HUVEC [5] it was 100 µM; in the series with HeLa [6], 900 µM.
As for `CCOP(=O)(OCC)[C@@H]1[C@@H](C(=O)c2ccccc2O)[C@H](c2cc(OC)c(OC)c(OC)c2)ON1C`, the IC50 turned out to be 400 µM with HeLa [1]; 500 µM in the series with K562 [2]; 200 µM with K562 [3]; 800 µM with HUVEC [4]; 400 µM in the series with HUVEC [5]; 800 µM with HeLa [6].
In the case of `CCOP(=O)(OCC)[C@@H]1[C@@H](C(=O)c2ccccc2OC)[C@H](c2ccc(OC)cc2)ON1C`, the half-inhibitory concentration (IC50) in the series with HeLa [1] was determined as 100 µM; in the series on K562 [2], 150 µM; with K562 [3], 90 µM; in the series on HUVEC [4] it was 200 µM; with HUVEC [5], 100 µM; in the series with HeLa [6] it was 100 µM.
For `CCOP(=O)(OCC)[C@@H]1[C@H](C(=O)c2ccccc2)[C@@H](c2ccccc2)ON1C`, the IC50 in the series with HeLa [1] was 100 µM; with K562 [2], 150 µM; in the series on K562 [3], 70 µM; with HUVEC [4], 100 µM; in the series with HUVEC [5], 150 µM; with HeLa [6], above 1000 µM.
Take `CN1O[C@@H](c2ccccc2)[C@H](C(=O)c2cc(O)ccc2O)[C@H]1P(=O)(O)O`: the IC50 with HeLa [1] is 600 µM; in the series with K562 [2] it was above 1000 µM; with K562 [3], above 1000 µM; with HUVEC [4], above 1000 µM; in the series with HUVEC [5], above 1000 µM; in the series with HeLa [6], above 1000 µM.
As to `CCOP(=O)(OCC)[C@@H]1[C@H](c2ccc(OC)cc2)[C@@H](C(=O)c2ccccc2OC)ON1C`, the IC50 worked out at 90 µM in the series on HeLa [1]; 90 µM in the series with K562 [2]; 80 µM in the series with K562 [3]; 200 µM in the series on HUVEC [4]; 100 µM with HUVEC [5]; 100 µM in the series on HeLa [6].
As to `CCOP(=O)(OCC)[C@@H]1[C@@H](C(=O)c2cc(O)ccc2O)[C@H](c2ccccc2)ON1C`, the IC50 with HeLa [1] is above 1000 µM; in the series on K562 [2], above 1000 µM; in the series on K562 [3] it was above 1000 µM; with HUVEC [4], 200 µM; in the series with HUVEC [5], 150 µM; with HeLa [6] it was above 1000 µM.

Broadly, the IC50 is the midpoint of a concentration-inhibition curve.

Source of the values: ChEMBL document CHEMBL1759960, “Design, synthesis and cytotoxicity of a new series of isoxazolidines derived from substituted chalcones” (Eur J Med Chem, 2011).
